Calls of active or inactive are those of the source.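 The calls were made as follows: active = mean EC50 at or below 20 µM; inactive = the rest.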
System: CHO-XBP1 cells, IRE1-XBP1 luciferase reporter luminescence
Assay: XBP1 luciferase reporter activation – CHO-XBP1 cells, luminescence, SAR follow-up (AID 540311)

Q: With Cc1nc(Nc2nccc(-c3ccccc3)n2)nc2ccccc12 as the compound, how does the EC50 read?
A: > 80 µM (inactive)

Q: Cc1nc(Nc2nc(-c3ccccc3)cc(=O)[nH]2)nc2ccccc12 was tested. Which EC50 did it give?
A: 12.8 µM

Q: Cc1ccnc(Nc2ncccn2)n1 was tested. Which EC50 did it give?
A: > 80 µM (inactive)

Q: Cc1cc(=O)[nH]c(Nc2nc(C)c3ccccc3n2)n1 was tested. Which EC50 did it give?
A: > 80 µM (inactive)

Q: How did the EC50 turn out when Cc1nc(Nc2ncccn2)nc2ccccc12 was run?
A: > 80 µM (inactive)

Q: With Cc1cc(-c2ccccc2)nc(Nc2nc(C)c3ccccc3n2)n1 as the compound, how does the EC50 read?
A: > 80 µM (inactive)

Q: For COc1cc(-c2ccccc2)nc(Nc2nc(C)c3ccccc3n2)n1, which EC50 is on record?
A: > 80 µM (inactive)

Q: For Cc1ccnc(Nc2nc(-c3ccccc3)cc(=O)[nH]2)n1, which EC50 is on record?
A: > 80 µM (inactive)

Source: PubChem BioAssay AID540311 (Sanford-Burnham Center for Chemical Genomics, 2011)
